The results in this text go back to PubChem BioAssay AID463199 (Broad Institute, 2010).

Activity calls are given as the source filed them.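 How the source made its calls: active means AC50, the dose giving half-maximal effect, exceeds a fixed cutoff for a compound that rescues yeast growth under heat; inactive means the rest, inconclusive results apart.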 Where a SMILES comes first, the peptide text is derived from it. Bounds are passed on as bounds.

The assay relates to S. cerevisiae Burl-1 ts mutant growth, BacTiter-Glo, 38.5C 24 h. As to the kind of experiment: restored growth of temperature-sensitive Burl-1 yeast – whole organism, S. cerevisiae, Burl-1 ts mutant, luminescence, counter-screen for SUMOylation pathway inhibitor project, dose response (AID 463199).
Usually AC50 stands for the concentration at which the activity in the assay is half-maximal. Take `N#C/C(=C\c1cc([N+](=O)[O-])c(N2CCOCC2)cc1N1CCOCC1)c1nc2ccccc2[nH]1`: the AC50 was > 42 µM (inactive).

Take `COc1ccccc1CNC(=O)C1CCC(=O)N1C(C)C` (stereo not given): the AC50 is > 42 µM (inactive).

For `Cc1cc(C)cc(-n2ncc3c2CCCC3NC(=O)c2cc(C)[nH]n2)c1` (stereo not given), the AC50 was > 42 µM (inactive).

For the compound `CN(C)c1ccc(/C=N\Nc2ccccn2)cc1`, the AC50 was > 42 µM (inactive).

Turning to `CCC(C)(C)NC(=O)C(c1ccc(C)cc1)N(CC1CCCO1)C(=O)CNC(=O)c1cccs1` (stereo not given), the AC50 was > 42 µM (inactive).

For `Cc1csc(CNc2ncnc3ccc(-c4ccccc4Cl)cc23)c1`, the AC50 is > 42 µM (inactive).

Turning to `O=c1cnc2ccccc2n1Cc1ccccc1C(F)(F)F`, the AC50 was > 42 µM (inactive).

For `COC(=O)C1C(c2ccc(OC)c(OC)c2)NC(c2ccc(OC)c(OC)c2)C(C(=O)OC)S1(=O)=O` (stereo not given), the AC50 is > 42 µM (inactive).

As for `COCCn1c(SCc2ccc(Cl)cc2)nc2c1c(=O)[nH]c(=O)n2C`, the AC50 was > 42 µM (inactive).

Take `COc1ccccc1CNC(=O)CCC(=O)Nc1nnc(C(C)C)s1`: the AC50 was > 42 µM (inactive).

In the case of `CNC(=O)NNC(=O)c1csc(-c2ccc(C(F)(F)F)cc2Cl)n1`, the AC50 was > 42 µM (inactive).

Regarding `O=C(NCc1ccccn1)C1CC(c2ccc(Cl)c(Cl)c2)=NO1` (stereo not given), the AC50 was > 42 µM (inactive).

Take `COc1cccc(NC(=O)c2nn(C34CC5CC(CC(C5)C3)C4)cc2[N+](=O)[O-])c1`: the AC50 is > 42 µM (inactive).

With `Cc1ccc(C)c(NC(=S)NC(=O)c2cncc(Br)c2)c1`, the AC50 is > 42 µM (inactive).

With `CN=C1SC(CC(=O)Nc2sc3c(c2C#N)CCCC3)C(=O)N1C` (stereo not given), the AC50 was > 42 µM (inactive).

`COC(=O)c1ccc(SCC(=O)N2CCC(C)CC2)c([N+](=O)[O-])c1`: the AC50 was > 42 µM (inactive).

As to `O=C(Nc1ccncc1Cl)c1ccncc1`, the AC50 was > 42 µM (inactive).

With `N#CC1=C(N)Oc2n[nH]c(CSc3ccccc3)c2C12C(=O)Nc1ccccc12` (stereo not given), the AC50 is > 42 µM (inactive).

`O=C(O)c1ccc(/C=N/NC(=O)c2cc(-c3ccc4c5c(cccc35)CC4)n[nH]2)cc1`: the AC50 is > 42 µM (inactive).

On to `c1ccc(-c2cc3cc4c(cc3cn2)OCO4)cc1`, for which the AC50 is > 42 µM (inactive).

As to `CN(C)CCN(Cc1ccc(Cl)cc1)c1ccccn1`, the AC50 is 36.3 µM.

For the compound `OCC[C@@H]1C[C@H](O)[C@@H](O)[C@]2(CCc3ccccc3CO2)O1`, the AC50 was > 42 µM (inactive).

With `CCn1c(SCC(=O)Nc2ccc(NC(=O)c3ccco3)cc2)nnc1-c1cccs1`, the AC50 was > 42 µM (inactive).

Regarding `COc1ccc(-c2noc(CSc3nc(-c4ccccc4)cc(=O)[nH]3)n2)cc1OC`, the AC50 was > 42 µM (inactive).

Turning to `CC(=O)NC(CC(C)C)C(=O)NC(CO)C(=O)NC(CCC(=O)O)C(=O)NC(C)C(=O)NC(CC(C)C)C(N)=O` (stereo not given) (Ac-LSEAL-NH2; configuration not given here), the AC50 was > 42 µM (inactive).

On to `CC1CC(C)(C)N2C(=O)C3(Nc4ccccc4S3)c3cccc1c32` (stereo not given), for which the AC50 was > 42 µM (inactive).

Consider `CCOC(=O)N1CCN(c2nnnn2-c2ccccc2)CC1`, for which the AC50 was > 42 µM (inactive).

For `Cc1ccc(-c2cc(C(=O)O)c3ccccc3n2)s1`, the AC50 is > 42 µM (inactive).

`N=c1ncn(CC(O)CO)c2nc(N3CCOCC3)[nH]c12` (stereo not given): the AC50 was > 42 µM (inactive).

As to `Cc1ccc(NC2CC(=O)N(c3ccc(N4CCCCC4)cc3)C2=O)cc1` (stereo not given), the AC50 is > 21 µM (inactive).

As for `COC(=O)c1ccc(NC(=O)CCN2CCN(c3ccccc3)CC2)cc1`, the AC50 is > 42 µM (inactive).

As to `CC(C)Oc1ccc(C2(C#N)CC[N+](C)(C)CC2)cc1`, the AC50 is > 42 µM (inactive).

As to `C=CCNC(=O)c1onc(CSc2cccc(C)c2)c1C(=O)O`, the AC50 is > 42 µM (inactive).

On to `COc1ccccc1N1CCN(C(=O)C(=O)N/N=C/c2ccccc2F)CC1`, for which the AC50 was > 42 µM (inactive).

For the compound `O=C(O)c1ccc(S(=O)(=O)N2CCN(c3ccccn3)CC2)cc1`, the AC50 was > 42 µM (inactive).

Consider `CCN1C(=O)N(c2ccc(Cl)cc2)C(C)=CC1(C)C`, for which the AC50 is > 42 µM (inactive).

`O=C(C1CCN(C2CC(=O)N(c3cccc(Cl)c3)C2=O)CC1)N1CCCC1` (stereo not given): the AC50 is > 42 µM (inactive).

`CN(C)c1ccc(NS(=O)(=O)c2cccc(Cl)c2)cc1`: the AC50 is > 42 µM (inactive).

For the compound `CS(=O)(=O)Nc1ccccc1C(=O)NCCSCc1ccccc1`, the AC50 is > 42 µM (inactive).

Regarding `c1ccc(-c2csc(N3CCN(c4ccccn4)CC3)n2)cc1`, the AC50 is > 42 µM (inactive).

As to `CN(c1ccccc1)S(=O)(=O)c1ccc(C(=O)NCC2CCCO2)cc1` (stereo not given), the AC50 was > 21 µM (inactive).

On to `CCN(CC)S(=O)(=O)c1ccc(NC(=O)C(C)N(c2ccccc2)S(C)(=O)=O)cc1` (stereo not given), for which the AC50 is > 42 µM (inactive).

As to `Cc1ccc(S(=O)(=O)NN2C(=O)c3ccccc3NC2c2ccccc2F)cc1` (stereo not given), the AC50 was > 42 µM (inactive).

Turning to `O=C(CSc1nnnn1C1CC2CCC1C2)Nc1ccnc2ccccc12` (stereo not given), the AC50 is > 42 µM (inactive).

Turning to `Cn1c(=NC(=O)COc2ccccc2)sc2cc(F)cc(F)c21`, the AC50 is > 42 µM (inactive).

As for `CCOC(=O)c1sc2ncnc(N3CCN(c4ccc(OC)cc4)CC3)c2c1C`, the AC50 is > 42 µM (inactive).

For `CC(C)C(=O)NNc1ccc(C(F)(F)F)cn1`, the AC50 was > 42 µM (inactive).

Turning to `Cc1[nH]oc(=O)c1N=Nc1c(Cl)cccc1Cl`, the AC50 was > 42 µM (inactive).

With `c1ccc(N2CCN(C3CCSC3)CC2)cc1` (stereo not given), the AC50 is > 42 µM (inactive).

With `COCCNC(=O)C(c1ccc(C)cc1)N(C(=O)CCC(=O)Nc1ccccn1)c1cccc(C)c1` (stereo not given), the AC50 is > 42 µM (inactive).

For the compound `COc1ccc(S(=O)(=O)n2nc(-c3ccc(Cl)cc3)cc2N)cc1OC`, the AC50 was > 42 µM (inactive).

On to `CCn1c(SC(=O)NC2CCCCC2)nnc1-c1cccs1`, for which the AC50 was > 42 µM (inactive).

Take `C=CCSc1nnc2c(n1)[nH]c1c(C)cccc12`: the AC50 is > 42 µM (inactive).

Take `COCCCNC(=O)c1cc(C(=O)c2c(-c3c(Cl)cccc3Cl)noc2C)c[nH]1`: the AC50 was > 42 µM (inactive).

For the compound `Cc1cc(F)ccc1S(=O)(=O)Nc1ccccc1C(=O)Nc1ccc2[nH]c(=O)[nH]c2c1`, the AC50 is > 42 µM (inactive).

As to `Nc1cccc2c1C(=O)N(c1ccccc1)C2=O`, the AC50 was > 42 µM (inactive).

Take `COc1ccc(CNS(=O)(=O)c2ccc3c(c2)CCN3C(=O)C2CCC2)cc1`: the AC50 was > 42 µM (inactive).

As to `COC(=O)c1ccccc1NC(=O)c1cnn2c(C)cc(C)nc12`, the AC50 was > 42 µM (inactive).

Consider `O=C1c2cc(N3CCCC3)c([N+](=O)[O-])cc2C(=O)N1c1ccccc1`, for which the AC50 is > 42 µM (inactive).

As for `CC(NC(=O)C12CC3CC(CC(O)(C3)C1)C2)c1ccccc1` (stereo not given), the AC50 was > 42 µM (inactive).

For the compound `CCc1nnc2n1N=C(c1ccc(Cl)cc1)CS2`, the AC50 is > 42 µM (inactive).

In the case of `Cn1cc(Br)c(C(=O)Nc2nccs2)n1`, the AC50 was > 42 µM (inactive).

Consider `CN(C)c1ccc(C(CNS(=O)(=O)c2ccc([N+](=O)[O-])cc2)N2CCOCC2)cc1` (stereo not given), for which the AC50 is > 42 µM (inactive).

As to `COc1ccc(-c2nnc(SCC(C)C)o2)cc1`, the AC50 is > 42 µM (inactive).

Take `CCOC(=O)c1cnc2c(OC)cccc2c1N1CCN(c2ccccc2OC)CC1`: the AC50 is > 42 µM (inactive).

As for `COc1ccc(NC(=S)NC(=O)C2CCC2)cc1`, the AC50 is > 42 µM (inactive).

For the compound `CCOP(=O)(OCC)c1cc(CC)ccc1O`, the AC50 is > 42 µM (inactive).

Take `Cc1cnc(NC(=O)CSc2nc3ccccc3s2)s1`: the AC50 was > 42 µM (inactive).

In the case of `COc1ccc([N+](=O)[O-])cc1NC(=O)C1CCCN1S(=O)(=O)c1cccs1` (stereo not given), the AC50 was > 42 µM (inactive).

As for `CCOC(=O)c1c(C)[nH]c(C(=O)COC(=O)c2ccncc2)c1C`, the AC50 is > 42 µM (inactive).
